In US9326503B2, “Biocide compositions comprising branched alkyl polyglycosides” (Cognis IP Management GmbH, priority 2009, dated 2016):

Tests used:
[1] = test system: barnyard grass and green foxtail; test: Uptake of radio-labelled nicosulfuron with adjuvant, compared with crop oil concentrate; format: in vivo; settings: adjuvant rate giving the same nicosulfuron uptake as COC (uptake with COC set to 100%); nicosulfuron (ACCENT WDG 75) 0.031% w/v
Method: A separate study was undertaken to compare the performance of the invented composition compared with an industry standard, more particularly a crop oil concentrate (COC), on the uptake of nicosulfuron on barnyard grass and green foxtail. Nicosulfuron as ACCENT® WDG 75 was used at 0.031% w/v (46.7 g active ingredient/150 l/ha). Radio-labelled nicosulfuron (50 mCi/mmol) was added to freshly prepared treatment solution 0.5 h prior to use. The ^14C nicosulfuron comprised 7% by mass. Spray solutions with nicosulfuron alone i.e. without adjuvant, were formulated in 50% acetone. All additives were used at the same concentration. The uptake using COC (Example C3) was set to 100%, therefore the data in Table 2, below, reflects the reduction in concentration of the other adjuvants in order to achieve the same level of uptake for COC. In other words, one can reduce the amount of adjuvant by 75-80% in order to achieve the same effects compared to the use of COC.

Asian Soybean Rust = test: Field trial in Brazil: soybean crop yield under Asian Soybean Rust, fungicide with or without adjuvant; format: in vivo; settings: where added, 150 ml/ha
Method: Field trials were conducted in Brazil. Two standard biocide compositions from the market were applied to soybean crops: OPERA® (BASF) contains 5% w/w epoxiconazole and 13.3% w/w pyraclostrobin, the former is a preventive and curative fungicide, the latter a protectant, curative, and translaminar fungicide. FOLICUR® (Bayer CropScience) contains tebuconazole, a fungicide with protective, curative, and eradicant properties. The two compositions were applied at full recommended rate and at a 50% level. These experiments are compared to similar treatment of the plants adding in both cases adjuvant mixtures at a concentration of 150 ml/ha.

[2] = FOLICUR (tebuconazole) at full recommended rate
[3] = FOLICUR at 50% of the full recommended rate
[4] = OPERA (5% epoxiconazole, 13.3% pyraclostrobin) at full recommended rate
[5] = OPERA at 50% of the full recommended rate

Substance	Adjuvant rate [1] [% v/v]	Soybean Crop Yield influenced by Asian Soybean Rust - relative to control (=100), FOLICUR (Asian Soybean Rust; [2])	Soybean Crop Yield influenced by Asian Soybean Rust - relative to control (=100), FOLICUR (Asian Soybean Rust; [3])	Soybean Crop Yield influenced by Asian Soybean Rust - relative to control (=100), OPERA (Asian Soybean Rust; [4])	Soybean Crop Yield influenced by Asian Soybean Rust - relative to control (=100), OPERA (Asian Soybean Rust; [5])
2-Octyldodecyl polyglucoside (DP 1.7) [Example 1]	0.24	141	161	161	137
Cetearyl polyglucoside (DP 1.5) [C1, reference compound]	0.19	127	149	150	129
Isostearyl polyglucoside (DP 1.5) [Example 2]	0.22	135	156	153	137
